Patent publication US10086030B2, “Use of composition in preparing health care products or medicines for preventing and treating allergic diseases” (JIANGZHONG PHARMACEUTICAL CO., LTD., priority 2012, dated 2018)
“And” between values parts separate entries of the source, which are not always exact repeats. Identical values can stand only once.

Tests used:
[1] = system: delayed hypersensitivity in mouse auricle skin caused by 2,4-dinitrochlorobenzene; assay: Delayed hypersensitivity in mouse auricle skin caused by 2,4-dinitrochlorobenzene; assay type: in vivo, Kunming mice; conditions: mice
Protocol: A 5% 2,4-dinitrochlorobenzene solution in ethanol was applied onto the abdominal skin (shaved) of the mice for sensitization. […] 7 days after sensitization, a 1% 2,4-dinitrochlorobenzene solution was applied onto the right ear, and the mice were sacrificed after 24 hours, and both ears were cut off along the auricle baseline. Discs having a diameter of 8 mm were punctured out at the same position on both ears, precisely weighed on an electronic balance, and the weight difference between the left and right ears was taken as the value for delayed hypersensitivity.

[2] = system: local itching in mice caused by low-molecular-weight dextran; assay: Local itching in mice caused by low-molecular-weight dextran; assay type: in vivo, Kunming mice
Protocol: Intragastric administration was carried out to the mice once per day for 10 consecutive days. 30 min after the final administration, a 0.0125% low-molecular-weight dextran solution was injected at 0.1 g/10 g into the tail vein. The number of itching events (itching events were indicated by scratching on the head with front paws, scratching on the body with hind paws, and biting on various parts over the body) occurred within 30 min after injection with the low-molecular-weight dextran solution into tail veins of the mice in each group was observed and recorded. […] The number of itching events (itching events were indicated by scratching on the head with front paws, scratching on the body with hind paws, and biting on various parts over the body) occurred within 30 min after injection with the low-molecular-weight dextran solution into tail veins of the mice in each group was observed and recorded. […] The number of itching events (itching events were indicated by scratching on the head with front paws, scratching on the body with hind paws, and biting on various parts over the body) occurred within 30 min after injection with the low-molecular-weight dextran solution into tail veins of the mice in each group was observed and recorded. […] The number of itching events (itching events were indicated by scratching on the head with front paws, scratching on the body with hind paws, and biting on various parts over the body) occurred within 30 min after injection with the low-molecular-weight dextran solution into tail veins of the mice in each group was observed and recorded.

[3] = system: passive anaphylaxis (PCA) in rats caused by ovalbumin; assay: Passive anaphylaxis (PCA) in rats caused by ovalbumin: diameter of blue spots, mast cell degranulation, serum histamine; assay type: in vivo, SD rats; conditions: for Diameter of blue spots 1:4: 1:4 anti-ovalbumin serum; for Diameter of blue spots 1:8: 1:8 anti-ovalbumin serum
Protocol: On day 15, the back of the rats were shaved, and was intradermally injected with a diluted antiserum at two spots on each side with 0.1 ml per spot. After 48 hours, a 1.0 ml mixed solution of 1% Evans Blue and 1% ovalbumin in physiological saline was injected into the tail vein of each rat. […] The rats were then sacrificed, and their back skin was inverted to measure the diameter of blue reaction spots to determine the difference between the dosing groups and the model group. A sample of the rat skin tissue was fixed with neutral formaldehyde, dehydrated with an alcohol gradient, embedded in paraffin, and examined for mast cell degranulation in the tissue[^3]. […] On day 15, the back of the rats were shaved, and was intradermally injected with a diluted antiserum at two spots on each side with 0.1 ml per spot. After 48 hours, a 1.0 ml mixed solution of 1% Evans Blue and 1% ovalbumin in physiological saline was injected into the tail vein of each rat. […] The rats were then sacrificed, and their back skin was inverted to measure the diameter of blue reaction spots to determine the difference between the dosing groups and the model group. A sample of the rat skin tissue was fixed with neutral formaldehyde, dehydrated with an alcohol gradient, embedded in paraffin, and examined for mast cell degranulation in the tissue^[3]. […] On day 15, the back of the rats were shaved, and was intradermally injected with a diluted antiserum at two spots on each side with 0.1 ml per spot. After 48 hours, a 1.0 ml mixed solution of 1% Evans Blue and 1% ovalbumin in physiological saline was injected into the tail vein of each rat. […] The rats were then sacrificed, and their back skin was inverted to measure the diameter of blue reaction spots to determine the difference between the dosing groups and the model group. A sample of the rat skin tissue was fixed with neutral formaldehyde, dehydrated with an alcohol gradient, embedded in paraffin, and examined for mast cell degranulation in the tissue^[3]. […] On day 15, the back of the rats were shaved, and was intradermally injected with a diluted antiserum at two spots on each side with 0.1 ml per spot. After 48 hours, a 1.0 ml mixed solution of 1% Evans Blue and 1% ovalbumin in physiological saline was injected into the tail vein of each rat. […] The rats were then sacrificed, and their back skin was inverted to measure the diameter of blue reaction spots to determine the difference between the dosing groups and the model group. A sample of the rat skin tissue was fixed with neutral formaldehyde, dehydrated with an alcohol gradient, embedded in paraffin, and examined for mast cell degranulation in the tissue^[3]. […] On day 15, the back of the rats were shaved, and was intradermally injected with a diluted antiserum at two spots on each side with 0.1 ml per spot. After 48 hours, a 1.0 ml mixed solution of 1% Evans Blue and 1% ovalbumin in physiological saline was injected into the tail vein of each rat. […] The rats were then sacrificed, and their back skin was inverted to measure the diameter of blue reaction spots to determine the difference between the dosing groups and the model group. A sample of the rat skin tissue was fixed with neutral formaldehyde, dehydrated with an alcohol gradient, embedded in paraffin, and examined for mast cell degranulation in the tissue^[3]. […] On day 15, the back of the rats were shaved, and was intradermally injected with a diluted antiserum at two spots on each side with 0.1 ml per spot. After 48 hours, a 1.0 ml mixed solution of 1% Evans Blue and 1% ovalbumin in physiological saline was injected into the tail vein of each rat. […] The rats were then sacrificed, and their back skin was inverted to measure the diameter of blue reaction spots to determine the difference between the dosing groups and the model group.

[4] = prednisone 5.0 mg, Composition 6 study
[5] = prednisone 5.0 mg, Composition 7 study
[6] = prednisone 5.0 mg, Composition 8 study

**Q.** Which “swelling degree of mouse auricle discs” value ([1]; positive control prednisone 5.0 mg (5 mg/kg) i.g. once daily 10 days) does the source give for `C[C@]12C=CC(=O)C=C1CC[C@@H]1[C@@H]2C(=O)C[C@@]2(C)[C@H]1CC[C@]2(O)C(=O)CO` [prednisone] here?
**A.** The value was 5.07 ± 0.59 mg and 4.22 ± 0.96 mg and 4.80 ± 0.73 mg.

**Q.** What about the “swelling degree of mouse auricle discs” value [1, 4] of the same compound?
**A.** The value was 4.62 ± 0.79 mg.

**Q.** And the “swelling degree of mouse auricle discs” value [1, 5]?
**A.** Its value is 4.84 ± 0.70 mg.

**Q.** What about the “swelling degree of mouse auricle discs” value [1, 6] of the same compound?
**A.** Its value is 4.60 ± 0.82 mg.

**Q.** And the “Number of itching events (30 min)” value [2, 4]?
**A.** The value was 15.43 ± 4.56.

**Q.** What about the “Number of itching events (30 min)” value [2, 5] of the same compound?
**A.** The value was 15.57 ± 5.33.

**Q.** And the “Number of itching events (30 min)” value [2, 6]?
**A.** Its value is 14.88 ± 5.08.

**Q.** What about the “Number of itching events (30 min)” value ([2]; within 30 min after dextran, positive control prednisone 5.0 mg i.g. once daily 10 days) of the same compound?
**A.** The value was 18.30 ± 4.62 and 14.25 ± 6.72 and 17.20 ± 4.08.

**Q.** What about the “Diameter of blue spots 1:4” value [3, 4] of the same compound?
**A.** The value was 13.22 ± 1.90 mm.

**Q.** And the “Diameter of blue spots 1:4” value [3, 5]?
**A.** Its value is 12.48 ± 2.16 mm.

**Q.** And the “Diameter of blue spots 1:4” value [3, 6]?
**A.** The value was 12.82 ± 2.62 mm.

**Q.** And the “Diameter of blue spots 1:8” value [3, 4]?
**A.** The value was 8.65 ± 1.52 mm.

**Q.** And the “Diameter of blue spots 1:8” value [3, 5]?
**A.** The value was 8.32 ± 1.63 mm.

**Q.** What about the “Diameter of blue spots 1:8” value [3, 6] of the same compound?
**A.** The value was 8.54 ± 1.82 mm.

**Q.** And the “Diameter of blue spots (mm) 1:4” value ([3]; antiserum 1:4, positive control prednisone 5.0 mg (5 mg/kg) i.g. once daily 14 days)?
**A.** The value was 12.79 ± 1.88 mm and 11.94 ± 1.90 mm and 11.35 ± 1.74 mm.

**Q.** And the “Diameter of blue spots (mm) 1:8” value ([3]; antiserum 1:8, positive control prednisone 5.0 mg (5 mg/kg) i.g. once daily 14 days)?
**A.** The value was 6.72 ± 1.31 mm.

**Q.** And the “Degranulation (mast cell)” value [3, 4]?
**A.** The value was 19.80 ± 10.57.

**Q.** What about the “Histamine fluorescence (serum histamine content)” value (shortened to “Histamine fluorescence”) [3, 4] of the same compound?
**A.** The value was 2.07 ± 0.76 mg·L.

**Q.** What about the “Degranulation (mast cell)” value [3, 5] of the same compound?
**A.** The value was 17.54 ± 11.23.

**Q.** And the “Histamine fluorescence” value [3, 5]?
**A.** Its value is 2.11 ± 0.70 mg·L.

**Q.** And the “Degranulation (mast cell)” value [3, 6]?
**A.** Its value is 17.95 ± 11.82.

**Q.** And the “Histamine fluorescence” value [3, 6]?
**A.** Its value is 2.25 ± 0.76 mg·L.

**Q.** And the “Degranulation (mast cell)” value ([3]; skin tissue, positive control prednisone 5.0 mg (5 mg/kg) i.g. once daily 14 days)?
**A.** Its value is 22.54 ± 11.25 and 19.46 ± 8.72 and 21.33 ± 10.48.
